# From PMC4965013, “Open Source Drug Discovery with the Malaria Box Compound Collection for Neglected Diseases and Beyond” (PLoS Pathogens, 2016)
# Legend:
# [1] = test system: P. falciparum 3D7 trophozoites; experiment: Metabolomic fingerprint profiling LC-MS; type: cell-based, Plasmodium falciparum; design: UDP-D-glucose / ADP-D-glucose: unit not given here; settings: for Acetyllysine / N-acetyl-L-ornithine / N-carbamoyl-L-aspartate / NADPH / dAMP / dCMP / dTDP / dTMP / dTTP / dihydroorotate / orotate / DLH / DLS/SDL/SID / PD / PEE / PVNF / 3-phosphoglycerate / ADP-D-glucose / ATP / CDP / D-sedoheptulose-1/7-phosphate / FAD / GMP / NAD+ / NADP+ / Octoluse Bisphosphate / Pyroglutamic acid / UDP-D-glucose / UDP-D-glucuronate / UDP-N-acetyl-glucosamine / UDP / UMP / UTP / a-ketoglutarate / citrate/isocitrate / cytidine / dATP / dGMP/AMP / fumarate / glucose-1/6-phosphate / glycerate / guanine / guanosine / hypoxanthine / indole / inosine / nicotinate / ornithine / phosphoenolpyruvate / pyruvate / ribose-phosphate / sarcosine/alanine / sn-glycerol-3-phosphate / succinate/methylmalonic acid / uridine / xanthosine: S2 Table Metabolomics; for Acetyllysine: metabolite Acetyllysine; for N-acetyl-L-ornithine: metabolite N-acetyl-L-ornithine; for N-carbamoyl-L-aspartate: metabolite N-carbamoyl-L-aspartate; for NADPH: metabolite NADPH; for dAMP: metabolite dAMP; for dCMP: metabolite dCMP; for dTDP: metabolite dTDP; for dTMP: metabolite dTMP; for dTTP: metabolite dTTP; for dihydroorotate: metabolite dihydroorotate; for orotate: metabolite orotate; for DLH: peptide DLH; for DLS/SDL/SID: peptide DLS/SDL/SID; for PD: peptide PD; for PEE: peptide PEE; for PVNF: peptide PVNF; for 3-phosphoglycerate: metabolite 3-phosphoglycerate; for ADP-D-glucose: metabolite ADP-D-glucose; for ATP: metabolite ATP; for CDP: metabolite CDP; for CDP / D-sedoheptulose-1/7-phosphate / GMP / Octoluse Bisphosphate / UDP / UMP / UTP / citrate/isocitrate / dGMP/AMP / fumarate / glucose-1/6-phosphate / glycerate / guanine / guanosine / inosine / pyruvate / sarcosine/alanine / succinate/methylmalonic acid / uridine / xanthosine: change in metabolite level after compound treatment; for D-sedoheptulose-1/7-phosphate: metabolite D-sedoheptulose-1/7-phosphate; for FAD: metabolite FAD; for GMP: metabolite GMP; for NAD+: metabolite NAD+; for NADP+: metabolite NADP+; for Octoluse Bisphosphate: metabolite Octoluse Bisphosphate; for Pyroglutamic acid: metabolite Pyroglutamic acid; for UDP-D-glucose: metabolite UDP-D-glucose; for UDP-D-glucuronate: metabolite UDP-D-glucuronate; for UDP-N-acetyl-glucosamine: metabolite UDP-N-acetyl-glucosamine; for UDP: metabolite UDP; for UMP: metabolite UMP; for UTP: metabolite UTP; for a-ketoglutarate: metabolite a-ketoglutarate; for citrate/isocitrate: metabolite citrate/isocitrate; for cytidine: metabolite cytidine; for dATP: metabolite dATP; for dGMP/AMP: metabolite dGMP/AMP; for fumarate: metabolite fumarate; for glucose-1/6-phosphate: metabolite glucose-1/6-phosphate; for glycerate: metabolite glycerate; for guanine: metabolite guanine; for guanosine: metabolite guanosine; for hypoxanthine: metabolite hypoxanthine; for indole: metabolite indole; for inosine: metabolite inosine; for 2_3-Diphosphoglyceric acid / 4-phosphopantothenate / 6-phospho-D-gluconate / FMN / IMP / Pyrophosphate / Sedoheptoluse bisphosphate / cyclic-AMP / glutathione disulfide / lactate / myo-inositol: metabolite level change after treatment; for nicotinate: metabolite nicotinate; for ornithine: metabolite ornithine; for phosphoenolpyruvate: metabolite phosphoenolpyruvate; for pyruvate: metabolite pyruvate; for ribose-phosphate: metabolite ribose-phosphate; for sarcosine/alanine: metabolite sarcosine/alanine; for sn-glycerol-3-phosphate: metabolite sn-glycerol-3-phosphate; for succinate/methylmalonic acid: metabolite succinate/methylmalonic acid; for uridine: metabolite uridine; for xanthosine: metabolite xanthosine
# [2] = test system: P. falciparum; experiment: EC50 listed in S2 Table Metabolomics (used to set the concentration tested); type: cell-based; settings: Plasmodium falciparum; EC50 used for Factor_XEC50 in metabolomics; read-out: EC50_nM
smiles,measurement,setting,value
CC(C)(C)c1ccc(O)c(CNC2CCCCC2)c1 [MMV665785],Acetyllysine,[1],-3.15
same,N-acetyl-L-ornithine,[1],-2.311
same,N-carbamoyl-L-aspartate,[1],-1.546
same,NADPH,[1],0.984
same,dAMP,[1],-0.2403
same,dCMP,[1],-0.2349
same,dTDP,[1],-0.5512
same,dTMP,[1],-0.26
same,dTTP,[1],0.1164
same,dihydroorotate,[1],-0.9762
same,orotate,[1],-1.456
same,DLH,[1],-3.579
same,DLS/SDL/SID,[1],-3.002
same,PD,[1],-3.491
same,PEE,[1],-3.582
same,PVNF,[1],-4.043
same,3-phosphoglycerate,[1],0.5402
same,ADP-D-glucose,[1],-0.1351
same,ATP,[1],0.1038
same,CDP,[1],0.1776
same,D-sedoheptulose-1/7-phosphate,[1],0.09578
same,FAD,[1],0.3792
same,GMP,[1],-0.7077
same,NAD+,[1],1.206
same,NADP+,[1],0.3365
same,Octoluse Bisphosphate,[1],0.02588
same,Pyroglutamic acid,[1],-0.2254
same,UDP-D-glucose,[1],0.3073
same,UDP-D-glucuronate,[1],0.153
same,UDP-N-acetyl-glucosamine,[1],0.3019
same,UDP,[1],-0.1861
same,UMP,[1],-0.1897
same,UTP,[1],-0.0004267
same,a-ketoglutarate,[1],-1.327
same,citrate/isocitrate,[1],-0.9862
same,cytidine,[1],0.6078
same,dATP,[1],0.1738
same,dGMP/AMP,[1],-0.2591
same,fumarate,[1],-2.071
same,glucose-1/6-phosphate,[1],0.2752
same,glycerate,[1],-0.524
same,guanine,[1],-0.6198
same,guanosine,[1],-0.8871
same,hypoxanthine,[1],-0.2777
same,indole,[1],-0.4001
same,inosine,[1],-0.2517
same,2_3-Diphosphoglyceric acid,[1],0.5476
same,4-phosphopantothenate,[1],-0.1524
same,6-phospho-D-gluconate,[1],0.3686
same,FMN,[1],0.4685
same,IMP,[1],0.07164
same,Pyrophosphate,[1],0.2456
same,Sedoheptoluse bisphosphate,[1],0.06348
same,cyclic-AMP,[1],-0.9854
same,glutathione disulfide,[1],-0.1571
same,lactate,[1],-0.3018
same,myo-inositol,[1],0.3826
same,nicotinate,[1],-0.1953
same,ornithine,[1],-0.1957
same,phosphoenolpyruvate,[1],0.4685
same,pyruvate,[1],-0.3246
same,ribose-phosphate,[1],-0.2844
same,sarcosine/alanine,[1],-1.431
same,sn-glycerol-3-phosphate,[1],-0.03786
same,succinate/methylmalonic acid,[1],-0.9733
same,uridine,[1],-0.6886
same,xanthosine,[1],-1.575
same,EC50,[2],0.161 µM
CCOC(=O)c1cnc2c(C)cc(C)cc2c1Nc1ccc(OC)c(OC)c1 [MMV008294],Acetyllysine,[1],-0.3425
same,N-acetyl-L-ornithine,[1],-0.09501
same,N-carbamoyl-L-aspartate,[1],2.682
same,NADPH,[1],1.75
same,dAMP,[1],0.2089
same,dCMP,[1],-0.6198
same,dTDP,[1],-0.4672
same,dTMP,[1],-0.4876
same,dTTP,[1],-1.144
same,dihydroorotate,[1],3.3871
same,orotate,[1],-0.7416
same,DLH,[1],-0.5675
same,DLS/SDL/SID,[1],-0.4346
same,PD,[1],-0.1287
same,PEE,[1],-0.648
same,PVNF,[1],-0.7723
same,3-phosphoglycerate,[1],-0.683
same,ADP-D-glucose,[1],-0.352
same,ATP,[1],-0.07176
same,CDP,[1],-0.1705
same,D-sedoheptulose-1/7-phosphate,[1],-0.3446
same,FAD,[1],0.0322
same,GMP,[1],-0.1695
same,NAD+,[1],-0.3043
same,NADP+,[1],-0.3797
same,Octoluse Bisphosphate,[1],-0.4297
same,Pyroglutamic acid,[1],0.3043
same,UDP-D-glucose,[1],-0.27
same,UDP-D-glucuronate,[1],-0.2831
same,UDP-N-acetyl-glucosamine,[1],-0.5063
same,UDP,[1],-0.5787
same,UMP,[1],-1.283
same,UTP,[1],-1.136
same,a-ketoglutarate,[1],-0.236
same,citrate/isocitrate,[1],0.7822
same,cytidine,[1],0.0959
same,dATP,[1],1.0046
same,dGMP/AMP,[1],-0.5258
same,fumarate,[1],-0.9618
same,glucose-1/6-phosphate,[1],0.01885
same,glycerate,[1],0.4536
same,guanine,[1],0.3469
same,guanosine,[1],2.083
same,hypoxanthine,[1],0.2152
same,indole,[1],0.4569
same,inosine,[1],0.05445
same,2_3-Diphosphoglyceric acid,[1],-0.768
same,4-phosphopantothenate,[1],-0.7166
same,6-phospho-D-gluconate,[1],-0.1153
same,FMN,[1],0.06908
same,IMP,[1],-0.2706
same,Pyrophosphate,[1],-0.2511
same,Sedoheptoluse bisphosphate,[1],-0.4052
same,cyclic-AMP,[1],-0.1956
same,glutathione disulfide,[1],-0.2281
same,lactate,[1],0.2967
same,myo-inositol,[1],0.2424
same,nicotinate,[1],0.04647
same,ornithine,[1],-0.4808
same,phosphoenolpyruvate,[1],-0.6158
same,pyruvate,[1],0.09912
same,ribose-phosphate,[1],-0.7165
same,sarcosine/alanine,[1],-0.5269
same,sn-glycerol-3-phosphate,[1],-0.7886
same,succinate/methylmalonic acid,[1],0.008672
same,uridine,[1],-0.03724
same,xanthosine,[1],0.1462
same,EC50,[2],0.232 µM
CC1CCN(Cc2ccc(NC(=O)c3cc4ccc5cccnc5c4[nH]3)cc2)CC1 [MMV020549],Acetyllysine,[1],-2.641
same,N-acetyl-L-ornithine,[1],-2.126
same,N-carbamoyl-L-aspartate,[1],2.423
same,NADPH,[1],1.7547
same,dAMP,[1],0.4295
same,dCMP,[1],0.8562
same,dTDP,[1],0.3381
same,dTMP,[1],0.4292
same,dTTP,[1],0.08993
same,dihydroorotate,[1],2.255
same,orotate,[1],1.187
same,DLH,[1],-1.428
same,DLS/SDL/SID,[1],-2.953
same,PD,[1],-0.7061
same,PEE,[1],-0.9939
same,PVNF,[1],-1.512
same,3-phosphoglycerate,[1],-0.1099
same,ADP-D-glucose,[1],0.08948
same,ATP,[1],-0.07943
same,CDP,[1],0.4826
same,D-sedoheptulose-1/7-phosphate,[1],0.04396
same,FAD,[1],-0.01225
same,GMP,[1],-0.01756
same,NAD+,[1],-0.1491
same,NADP+,[1],0.1203
same,Octoluse Bisphosphate,[1],-0.3788
same,Pyroglutamic acid,[1],-0.1503
same,UDP-D-glucose,[1],-0.0815
same,UDP-D-glucuronate,[1],-0.1055
same,UDP-N-acetyl-glucosamine,[1],-0.09535
same,UDP,[1],0.6579
same,UMP,[1],0.21
same,UTP,[1],0.1832
same,a-ketoglutarate,[1],-0.128
same,citrate/isocitrate,[1],-0.1069
same,cytidine,[1],-0.1996
same,dATP,[1],0.1916
same,dGMP/AMP,[1],0.3048
same,fumarate,[1],0.06488
same,glucose-1/6-phosphate,[1],-0.4724
same,glycerate,[1],-0.06488
same,guanine,[1],0.773
same,guanosine,[1],1.397
same,hypoxanthine,[1],-0.1958
same,indole,[1],-0.3017
same,inosine,[1],-0.6136
same,2_3-Diphosphoglyceric acid,[1],-0.02531
same,4-phosphopantothenate,[1],0.1058
same,6-phospho-D-gluconate,[1],-0.03173
same,FMN,[1],0.1472
same,IMP,[1],0.1864
same,Pyrophosphate,[1],0.03595
same,Sedoheptoluse bisphosphate,[1],0.04232
same,cyclic-AMP,[1],-0.09542
same,glutathione disulfide,[1],-0.2786
same,lactate,[1],-0.1188
same,myo-inositol,[1],-0.1919
same,nicotinate,[1],0.02078
same,ornithine,[1],0.04846
same,phosphoenolpyruvate,[1],-0.09349
same,pyruvate,[1],-0.1796
same,ribose-phosphate,[1],-0.1444
same,sarcosine/alanine,[1],-0.25
same,sn-glycerol-3-phosphate,[1],-0.2777
same,succinate/methylmalonic acid,[1],-0.1252
same,uridine,[1],0.147
same,xanthosine,[1],-0.8804
same,EC50,[2],0.274 µM
